Assay results reported in patent US20230271949A1, “GLP-1R MODULATING COMPOUNDS” (ASCLETIS BIOSCIENCE CO., LTD., priority 2022, published 2023).

molecular target: GLP-1R (Homo sapiens, UniProt P43220); experiment: GLP-1R agonist cAMP stimulation assay (HTRF cAMP); format: cell-based; details: HEK293 cell line expressing GLP-1 target; HTRF cAMP agonist mode, 30 min at RT
Method in brief: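 GLP-1R-expressing cells were stimulated with 10-point, 3-fold compound dilutions for 30 min at RT; HTRF cAMP detection reagents were then added for 60 min and the 665/615 ratio read. Ratios were converted to cAMP via a standard curve and % activity scaled between DMSO and top-concentration GLP-1(7-37) reference wells.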

Chain of GLP-1R (P43220 24-463): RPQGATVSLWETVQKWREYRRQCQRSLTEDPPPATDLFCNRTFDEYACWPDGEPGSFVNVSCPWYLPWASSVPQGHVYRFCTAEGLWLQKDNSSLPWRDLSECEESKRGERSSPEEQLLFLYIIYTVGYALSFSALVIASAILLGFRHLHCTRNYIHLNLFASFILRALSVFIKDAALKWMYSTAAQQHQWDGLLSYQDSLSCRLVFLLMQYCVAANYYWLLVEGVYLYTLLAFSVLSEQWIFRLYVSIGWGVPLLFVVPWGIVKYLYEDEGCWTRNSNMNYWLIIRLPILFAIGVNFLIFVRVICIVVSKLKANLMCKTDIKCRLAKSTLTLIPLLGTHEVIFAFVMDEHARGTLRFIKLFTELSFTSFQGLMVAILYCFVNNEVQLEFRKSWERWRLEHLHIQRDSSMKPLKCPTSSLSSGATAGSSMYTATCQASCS

EC50	Structure (SMILES)
1.28 nM	Cc1n[nH]c2c(Cl)cc(C(=O)Nc3ccc4c(c3)nc(C3CC35CCN(c3cccc(OCc6ccc(Cl)cc6F)n3)CC5)n4CC3CCO3)cc12 (centres unmarked) [Compound 248]
2.01 nM	Cc1n[nH]c2c(C(F)(F)F)cc(C(=O)Nc3ccc4c(c3)nc(C3CC35CCN(c3cccc(OCc6ccc(Cl)cc6F)n3)CC5)n4C[C@@H]3CCO3)cc12 (some centres unmarked) [Compound 253]
0.32 nM	Cc1n[nH]c2c(F)cc(C(=O)Nc3ccc4c(c3)nc(C(F)(F)N3CC=C(c5cccc(OCc6ccc(Cl)cc6F)n5)CC3)n4C[C@@H]3CCO3)cc12 [Compound 255]
12.5 nM	Cc1n[nH]c2c(C)cc(C(=O)Nc3ccc4c(c3)nc(C(F)(F)N3CC=C(c5cccc(OCc6ccc(Cl)cc6F)n5)CC3)n4C[C@@H]3CCO3)cc12 [Compound 256]
15.1 nM	Cc1n[nH]c2ccc(C(=O)Nc3ccc4c(c3)nc(C(F)(F)N3CC=C(c5cccc(OCc6ccc(Cl)cc6F)n5)CC3)n4C[C@@H]3CCO3)cc12 [Compound 257]
31.8 nM	O=C(Nc1ccc2c(c1)nc(C(F)(F)N1CC=C(c3cccc(OCc4ccc(Cl)cc4F)n3)CC1)n2C[C@@H]1CCO1)c1ccc2[nH]nc(C3CC3)c2c1 [Compound 258]
0.91 nM	CCn1cncc1Cn1c(CN2CCC(c3cccc(OCc4ccc(Cl)cc4F)n3)CC2)nc2cc(NC(=O)c3cc(F)c4[nH]nc(C)c4c3)ccc21 [Compound 259]
3.12 nM	Cc1n[nH]c2c(F)cc(NC(=O)c3ccc4nc(CN5CC=C(c6cccc(OCc7ccc(Cl)cc7F)n6)CC5)n(CC5CCO5)c4c3)cc12 (centres unmarked) [Compound 262]
5.78 nM	Cc1n[nH]c2ccc(NC(=O)c3ccc4nc(CN5CC=C(c6cccc(OCc7ccc(Cl)cc7F)n6)CC5)n(CC5CCO5)c4c3)cc12 (centres unmarked) [Compound 263]
4.22 nM	Cc1n[nH]c2c(C)cc(NC(=O)c3ccc4nc(CN5CC=C(c6cccc(OCc7ccc(Cl)cc7F)n6)CC5)n(CC5CCO5)c4c3)cc12 (centres unmarked) [Compound 264]
45.9 nM	Cc1cc(NC(=O)c2ccc3nc(CN4CC=C(c5cccc(OCc6ccc(Cl)cc6F)n5)CC4)n(CC4CCO4)c3c2)cc2c(F)n[nH]c12 (centres unmarked) [Compound 265]
10.8 nM	O=C(Nc1ccc2[nH]nc(Cl)c2c1)c1ccc2nc(CN3CC=C(c4cccc(OCc5ccc(Cl)cc5F)n4)CC3)n(CC3CCO3)c2c1 (centres unmarked) [Compound 269]
3.21 nM	Cc1n[nH]c2c(C(F)(F)F)cc(NC(=O)c3ccc4nc(CN5CC=C(c6cccc(OCc7ccc(Cl)cc7F)n6)CC5)n(CC5CCO5)c4c3)cc12 (centres unmarked) [Compound 272]
1.65 nM	Cc1n[nH]c2c(F)cc(NC(=O)c3ccc4nc(CN5CC=C(c6cccc(OCc7ccc(C#N)cc7F)n6)CC5)n(CC5CCO5)c4c3)cc12 (centres unmarked) [Compound 274]
0.76 nM	Cc1n[nH]c2c(F)cc(C(=O)Nc3ccc4nc(CN5CC=C(c6cccc(OCc7ccc(Cl)cc7F)n6)CC5)n(CC5CCO5)c4c3)cc12 (centres unmarked) [Compound 277]
3.18 nM	Cc1n[nH]c2ccc(C(=O)Nc3ccc4nc(CN5CC=C(c6cccc(OCc7ccc(Cl)cc7F)n6)CC5)n(CC5CCO5)c4c3)cc12 (centres unmarked) [Compound 278]
0.95 nM	Cc1n[nH]c2c(C)cc(C(=O)Nc3ccc4nc(CN5CC=C(c6cccc(OCc7ccc(Cl)cc7F)n6)CC5)n(CC5CCO5)c4c3)cc12 (centres unmarked) [Compound 279]
21 nM	O=C(Nc1ccc2nc(CN3CC=C(c4cccc(OCc5ccc(Cl)cc5F)n4)CC3)n(CC3CCO3)c2c1)c1ccc2[nH]nc(F)c2c1 (centres unmarked) [Compound 280]
10.2 nM	O=C(Nc1ccc2nc(CN3CC=C(c4cccc(OCc5ccc(Cl)cc5F)n4)CC3)n(C[C@@H]3CCO3)c2c1)c1cc(F)c2[nH]ncc2c1 [Compound 283]
9.85 nM	O=C(Nc1ccc2nc(CN3CC=C(c4cccc(OCc5ccc(Cl)cc5F)n4)CC3)n(CC3CCO3)c2c1)c1ccc2[nH]nc(Cl)c2c1 (centres unmarked) [Compound 284]
0.21 nM	O=C(Nc1ccc2nc(CN3CC=C(c4cccc(OCc5ccc(Cl)cc5F)n4)CC3)n(C[C@@H]3CCO3)c2c1)c1cc(F)c2c(c1)C1(CC1)C(=O)N2 [Compound 286]
2.98 nM	Cc1n[nH]c2c(C(F)(F)F)cc(C(=O)Nc3ccc4nc(CN5CC=C(c6cccc(OCc7ccc(Cl)cc7F)n6)CC5)n(CC5CCO5)c4c3)cc12 (centres unmarked) [Compound 287]
0.99 nM	Cc1n[nH]c2c(F)cc(C(=O)Nc3ccc4nc(CN5CC=C(c6cccc(OCc7ccc(C#N)cc7F)n6)CC5)n(CC5CCO5)c4c3)cc12 (centres unmarked) [Compound 289]
0.75 nM	Cc1n[nH]c2c(C)cc(C(=O)Nc3ccc4nc(CN5CC=C(c6cccc(OCc7ccc(C#N)cc7F)n6)CC5)n(CC5CCO5)c4c3)cc12 (centres unmarked) [Compound 291]

The remaining lines, values behind:

Structure (SMILES)	EC50
Cc1n[nH]c2ccc(C(=O)Nc3ccc4c(c3)nc(C3CC35CCN(c3cccc(OCc6ccc(Cl)cc6F)n3)CC5)n4CC3CCO3)cc12 (centres unmarked) [Compound 246]	0.91 nM
Cc1cc(C(=O)Nc2ccc3c(c2)nc(C2CC24CCN(c2cccc(OCc5ccc(Cl)cc5F)n2)CC4)n3C[C@@H]2CCO2)cc2c1NC(=O)C21CC1 (some centres unmarked) [Compound 247]	0.83 nM
Cc1cc(C(=O)Nc2ccc3c(c2)nc(C2CC24CCN(c2cccc(OCc5ccc(Cl)cc5F)n2)CC4)n3C[C@@H]2CCO2)cc2[nH]c(=O)[nH]c12 (some centres unmarked) [Compound 249]	0.44 nM
CCc1n[nH]c2ccc(C(=O)Nc3ccc4c(c3)nc(C3CC35CCN(c3cccc(OCc6ccc(Cl)cc6F)n3)CC5)n4CC3CCO3)cc12 (centres unmarked) [Compound 250]	1.49 nM
CC(C)c1n[nH]c2ccc(C(=O)Nc3ccc4c(c3)nc(C3CC35CCC(c3cccc(OCc6ccc(Cl)cc6F)n3)CC5)n4CC3CCO3)cc12 (centres unmarked) [Compound 251]	2.22 nM
O=C(Nc1ccc2c(c1)nc(C1CC13CCC(c1cccc(OCc4ccc(Cl)cc4F)n1)CC3)n2CC1CCO1)c1ccc2[nH]nc(C3CC3)c2c1 (centres unmarked) [Compound 252]	1.03 nM
O=C(Nc1ccc2c(c1)nc(C1CC13CCN(c1cccc(OCc4ccc(Cl)cc4F)n1)CC3)n2C[C@@H]1CCO1)c1cc(F)c2c(c1)C1(CC1)C(=O)N2 (some centres unmarked) [Compound 254]	1.92 nM
COCCn1c(CN2CCC(c3cccc(OCc4ccc(Cl)cc4F)n3)CC2)nc2cc(NC(=O)c3cc(C)c4[nH]nc(C)c4c3)ccc21 [Compound 260]	1.03 nM
Cc1n[nH]c2ccc(C(=O)Nc3ccc4c(c3)nc(CN3CCC(c5cccc(OCc6ccc(Cl)cc6F)n5)CC3)n4CCOC(F)(F)F)cc12 [Compound 261]	0.81 nM
O=C(Nc1ccc2c(c1)C1(CC1)C(=O)N2)c1ccc2nc(CN3CC=C(c4cccc(OCc5ccc(Cl)cc5F)n4)CC3)n(C[C@@H]3CCO3)c2c1 [Compound 266]	3.19 nM
Cc1cc(NC(=O)c2ccc3nc(CN4CC=C(c5cccc(OCc6ccc(Cl)cc6F)n5)CC4)n(C[C@@H]4CCO4)c3c2)cc2c1NC(=O)C21CC1 [Compound 267]	1.99 nM
Fc1cc(Cl)ccc1COc1cccc(C2=CCN(Cc3nc4ccc(CNc5cc(F)c6[nH]ncc6c5)cc4n3C[C@@H]3CCO3)CC2)n1 [Compound 268]	3.64 nM
O=C(Nc1ccc2[nH]c(=O)[nH]c2c1)c1ccc2nc(CN3CC=C(c4cccc(OCc5ccc(Cl)cc5F)n4)CC3)n(C[C@@H]3CCO3)c2c1 [Compound 270]	1.02 nM
O=C(Nc1cc(F)c2c(c1)C1(CC1)C(=O)N2)c1ccc2nc(CN3CC=C(c4cccc(OCc5ccc(Cl)cc5F)n4)CC3)n(C[C@@H]3CCO3)c2c1 [Compound 271]	0.97 nM
O=C(Nc1cc(C(F)(F)F)c2c(c1)C1(CC1)C(=O)N2)c1ccc2nc(CN3CC=C(c4cccc(OCc5ccc(Cl)cc5F)n4)CC3)n(C[C@@H]3CCO3)c2c1 [Compound 273]	2.78 nM
Cc1n[nH]c2ccc(NC(=O)c3ccc4nc(CN5CC=C(c6cccc(OCc7ccc(C#N)cc7F)n6)CC5)n(CC5CCO5)c4c3)cc12 (centres unmarked) [Compound 275]	6.21 nM
O=C(Nc1ccc2nc(CN3CC=C(c4cccc(OCc5ccc(Cl)cc5F)n4)CC3)n(C[C@@H]3CCO3)c2c1)c1ccc2c(c1)C1(CC1)C(=O)N2 [Compound 281]	1.21 nM
Cc1cc(C(=O)Nc2ccc3nc(CN4CC=C(c5cccc(OCc6ccc(Cl)cc6F)n5)CC4)n(C[C@@H]4CCO4)c3c2)cc2c1NC(=O)C21CC1 [Compound 282]	4.32 nM
O=C(Nc1ccc2nc(CN3CC=C(c4cccc(OCc5ccc(Cl)cc5F)n4)CC3)n(C[C@@H]3CCO3)c2c1)c1ccc2[nH]c(=O)[nH]c2c1 [Compound 285]	0.42 nM
O=C(Nc1ccc2nc(CN3CC=C(c4cccc(OCc5ccc(Cl)cc5F)n4)CC3)n(C[C@@H]3CCO3)c2c1)c1cc(C(F)(F)F)c2c(c1)C1(CC1)C(=O)N2 [Compound 288]	3.87 nM
Cc1n[nH]c2ccc(C(=O)Nc3ccc4nc(CN5CC=C(c6cccc(OCc7ccc(C#N)cc7F)n6)CC5)n(CC5CCO5)c4c3)cc12 (centres unmarked) [Compound 290]	1.2 nM
CC1(c2ccc(Cl)cc2F)Oc2cccc(C3=CCN(Cc4nc5cc(C(=O)Nc6ccc7[nH]nc(F)c7c6)ccc5n4CC4CCO4)CC3)c2O1 (centres unmarked) [Compound 292]	8.73 nM
Cc1n[nH]c2c(Cl)cc(NC(=O)c3ccc4c(c3)nc(CN3CC=C(c5cccc6c5OC(C)(c5ccc(Cl)cc5F)O6)CC3)n4CC3CCO3)cc12 (centres unmarked) [Compound 293]	0.99 nM
CC1(c2ccc(Cl)cc2F)Oc2cccc(C3=CCN(Cc4nc5cc(C(=O)Nc6ccc7[nH]nc(C8CC8)c7c6)ccc5n4CC4CCO4)CC3)c2O1 (centres unmarked) [Compound 294]	1.02 nM
Cc1n[nH]c2c(C(F)(F)F)cc(NC(=O)c3ccc4c(c3)nc(CN3CC=C(c5cccc6c5OC(C)(c5ccc(Cl)cc5F)O6)CC3)n4CC3CCO3)cc12 (centres unmarked) [Compound 295]	2.19 nM
Cc1cc(NC(=O)c2ccc3c(c2)nc(CN2CC=C(c4cccc5c4OC(C)(c4ccc(Cl)cc4F)O5)CC2)n3CC2CCO2)cc2c(C(F)(F)F)n[nH]c12 (centres unmarked) [Compound 296]	1.92 nM
CC1(c2ccc(Cl)cc2F)Oc2cccc(C3=CCN(Cc4nc5cc(C(=O)Nc6ccc7[nH]nc(C(F)(F)F)c7c6)ccc5n4CC4CCO4)CC3)c2O1 (centres unmarked) [Compound 297]	3.65 nM
Cc1n[nH]c2c(F)cc(NC(=O)c3ccc4c(c3)nc(CN3CC=C(c5cccc6c5O[C@@](C)(c5ccc(C#N)cc5F)O6)CC3)n4CC3CCO3)cc12 (some centres unmarked) [Compound 298]	0.37 nM
Cc1n[nH]c2c(C)cc(NC(=O)c3ccc4c(c3)nc(CN3CC=C(c5cccc6c5OC(C)(c5ccc(C#N)cc5F)O6)CC3)n4CC3CCO3)cc12 (centres unmarked) [Compound 299]	0.16 nM
